For assay [1], the target named is T1, AXL kinase (Homo sapiens, UniProt P30530).
T1 sequence (P30530 26-894): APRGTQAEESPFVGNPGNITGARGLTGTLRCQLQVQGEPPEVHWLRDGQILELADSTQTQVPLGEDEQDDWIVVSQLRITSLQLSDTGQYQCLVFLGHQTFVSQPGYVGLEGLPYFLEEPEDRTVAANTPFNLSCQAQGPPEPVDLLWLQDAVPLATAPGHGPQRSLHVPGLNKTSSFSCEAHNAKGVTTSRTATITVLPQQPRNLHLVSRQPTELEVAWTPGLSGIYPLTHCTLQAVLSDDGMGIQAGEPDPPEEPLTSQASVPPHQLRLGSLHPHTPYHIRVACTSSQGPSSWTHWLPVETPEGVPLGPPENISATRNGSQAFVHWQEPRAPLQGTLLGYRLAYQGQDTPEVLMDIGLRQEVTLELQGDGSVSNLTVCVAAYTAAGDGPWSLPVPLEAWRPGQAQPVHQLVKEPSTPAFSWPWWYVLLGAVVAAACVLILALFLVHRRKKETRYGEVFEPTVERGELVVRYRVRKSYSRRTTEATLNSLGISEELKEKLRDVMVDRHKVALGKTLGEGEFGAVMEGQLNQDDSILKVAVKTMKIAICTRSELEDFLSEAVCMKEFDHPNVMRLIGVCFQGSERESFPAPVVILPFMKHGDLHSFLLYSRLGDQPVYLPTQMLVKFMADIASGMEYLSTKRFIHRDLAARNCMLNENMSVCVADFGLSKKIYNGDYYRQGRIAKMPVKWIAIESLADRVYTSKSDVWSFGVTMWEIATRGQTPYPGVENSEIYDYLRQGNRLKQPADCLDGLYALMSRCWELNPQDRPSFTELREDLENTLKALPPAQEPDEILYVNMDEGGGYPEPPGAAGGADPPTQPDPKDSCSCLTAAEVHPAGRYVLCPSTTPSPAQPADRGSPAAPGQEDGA
As to the kind of experiment: AXL kinase biochemical assay.

In assay [2] the test system is Pancreatic cancer cells (PSN-1). As to the kind of experiment: Cell cycle analysis, propidium iodide flow cytometry. The format is cell-based. To be noted: PSN-1, 30 nM, 24 hours.
In assay [3] the test system is panel of 75 kinases. As to the kind of experiment: Kinase panel profiling at 200 nM. As to conditions: 200 nM profiling.
Assay [4] has as its system Aurora. As to the kind of experiment: Aurora activity of analogues. The format is biochemical.

The record followed here is publication PMC3254106 (ACS medicinal chemistry letters, 2011).

As a reminder, the IC50 is the midpoint of a concentration-inhibition curve.

In assay [1], `CN1CCN(c2ccc(Nc3nc(-c4ccc(F)c(Cl)c4)cc(-c4ccc[nH]4)n3)cc2F)CC1` [Compound 1] registered an IC50 of 33 µM. As to `CN1CCN(c2ccc(Nc3nc(-c4ccc(F)c(Cl)c4)cc(-c4ccc(F)c(Cl)c4)n3)cc2F)CC1` [Compound 2], the IC50 in assay [1] turned out to be 47 µM.

On to `CN1CCN(Cc2ccc(Nc3ncc(Cl)c(Nc4ccccc4S(=O)(=O)N(C)C)n3)cc2)CC1` [Compound 13], for which, in assay [2], the “G2/M (4N) population of cells” value is “significant increase” and the “cells with ≥4N DNA (8N peak, endoreduplication)” value was “accumulation of cells with ≥4N DNA”. For the same compound, the “activity against MER, TYRO3, Aurora A and B, JAK2, ALK, ABL1 and CHEK1” value in assay [3] is “strong activity”. Regarding `Cc1cnc(Nc2ccc(CN3CCN(C)CC3)cc2)nc1-c1ccc(F)cc1S(=O)(=O)N1CCCC1` [Compound 15], the “Aurora activity” value in assay [4] is “strong aurora activity”. `CN1CCN(Cc2ccc(Nc3ncc(F)c(-c4ccc(F)cc4S(=O)(=O)N4CCCC4)n3)cc2)CC1` [Compound 16]: the “Aurora activity” value in assay [4] is listed as “strong aurora activity”.

Regarding `CN1CCN(Cc2ccc(Nc3ncc(Cl)c(-c4ccc(F)cc4S(=O)(=O)N(C)C)n3)cc2)CC1` [Compound 26], in assay [4], the “Aurora activity” value was “strong aurora activity”. With `CN1CCN(Cc2ccc(Nc3ncc(Cl)c(-c4ccc(F)cc4S(=O)(=O)N4CCCC4)n3)cc2)CC1` [Compound 27], the “Aurora activity” value in assay [4] was “strong aurora activity”.
